Experimental data reported in patent US5324747A, “N-substituted anilines, inhibitors of phospholipases A2” (Hoffmann-La Roche Inc., priority 1992, dated 1994).
Counter-ions that a name gives are not always drawn.

Experiments:
[1] = molecular target: T1, HSF-PLA2 (Homo sapiens, UniProt P14555); assay: Assay for Inhibition of HSF-PLA2 In Vitro; type: biochemical; details: for IC50: read-out: Inhib of HSF-PLA2 IC50
T1 construct: extracellular enzyme obtained from human synovial fluid (HSF-PLA2); from tissue; host or cells: pooled human synovial fluid, added at 0.1% (v/v)
T1 sequence (P14555 21-144): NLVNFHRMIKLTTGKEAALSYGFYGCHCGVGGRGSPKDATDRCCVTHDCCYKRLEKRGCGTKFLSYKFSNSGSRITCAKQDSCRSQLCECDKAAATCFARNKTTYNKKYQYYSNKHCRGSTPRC
Method: Assay for Inhibition of HSF-PLA2 In Vitro
The PLA2 used in this test is the extracellular enzyme obtained from human synovial fluid (HSF-PLA2).
The optimal conditions which were developed for the assay of HSF-PLA2 inhibitors are summarized as follows. […] The reaction was initiated by the addition of HSF-PLA2 and duplicate samples of the mixture were incubated in 13×100 mm glass tubes with shaking for 30 minutes at 37° C. […] The extraction of lipids from the stopped reaction mixture was conducted by the further additions of […] of chloroform and 1 ml of water with mixing. After centrifuging, the lower chloroform phase was transferred to smaller glass tubes and the solvent was evaporated to dryness with a nitrogen stream. The extracted lipid residue was redissolved in 50 μl of a solution containing carrier oleic acid (0.2 mg/ml) of chloroform-methanol [9 to 1, v/v]). The whole lipid extract was applied to a preactivated (30 minutes at 110° C.) silica gel-impregnated glass fiber thin layer chromatography sheet (ITLC type SG sheet from Gelman Sciences, Inc., Ann Arbor, Mich.) using hexane-acetic acid (100 to 1, v/v) as the developing solvent. This TLC system rapidly (6 minutes) resolved the enzymatically released product, ^14 C-oleic acid, from the unreacted ^14 C-phospholipid substrate. The unsaturated lipids were located on the chromatogram by a brief exposure to iodine vapor. […] A control incubation of substrate in the absence of HSF-PLA2 was performed in each experiment.

[2] = system: Croton Oil Mouse Ear Edema; assay: Croton Oil Mouse Ear Edema Test; type: in vivo, CD-1 mice; details: topical, coapplied, 6 hours
Method: Twenty five μl of a 1% croton oil solution [dissolved in a mixture of pyridine/water/diethyl ether at a ratio of 5/20/75 (croton oil vehicle)] are applied to the outer side of the right ear of 3-4 week old made CD-1 mice (8 animals per group). The test compounds are dissolved directly in the 1% croton oil solution at various concentrations and coapplied. Control animals receive 25 μl of croton oil vehicle on the right ear. Biopsy punches are removed at 6 hours from the right ear of the animals using a 6 mm skin trephine (Roboz, Washington, D.C.) and the wet weight of the ear punches is determined. The weight of the biopsy punches is a measure of ear inflammation, primarily edema. The data are expressed as percent inhibition relative to control groups.

[3] = system: PLA2 Rat Paw Edema; assay: Phospholipase A2 Rat Paw Edema; type: in vivo, Lewis rats; details: Rattus norvegicus; 2 hr; 30 mg/kg; read-out: % Inhib of PLA2 Rat Paw Edema 2 hr (30 mg/kg)
Method: Phospholipase A2 Rat Paw Edema
Representation compounds of the invention were tested in rats to determine their ability to inhibit the acute inflammatory response induced by the injection of snake venom phospholipase A2. Test compounds are administered intraperitoneally or orally to groups of seven Lewis rats (≈200 gm) 1 hr prior to phospholipase A2 administration. The test compounds are dissolved in dimethyl sulfoxide for intraperitoneal administration and dissolved or suspended in Labrafil M-1944CS for oral administration. At 0 hr, 5 ug (10 units) of purified phospholipase A2 from Naja naja venom (Sigma Chem. Co.) dissolved in 0.1 mL of pyrogen free saline is injected subplantarly into the right hind paw to elicit the inflammatory response. The volume (in mL) of the right hind paw is measured by immersion of the paw to the level of the lateral malleolus in an aqueous plethysmometer immediately prior to the injection of phospholipase A2 and then at 0.5, 2 and 4 hr after phospholipase A2 injection. The paw edema is calculated by subtracting the zero time reading from the readings taken after injection. The percent change of the edema volume from the vehicle treated control is calculated to determine the activity of the test compound. Statistical analysis of the mean paw edema values of the control versus the treated groups is performed using Student's t-test. Significance of changes from mean value for vehicle-treated animals (*p<0.05, **p<0.01, ***p<0.001, ns/not significant).

[4] = read-out: Inhib of HSF-PLA2, % inhibition

In the case of `CCCCCCCCCCCCCCCCCC(=O)Oc1cccc(N(CC(=O)O)CC(=O)O)c1` [Example 36b], the IC50 [1] is reported as 200 nM, the “% Inhib of Croton Oil Mouse Ear Edema (1 mg)” value (shortened to “% Inhib”) [2] is reported as 61% and the inhibition in vivo at 30 mg/kg [3] is reported as 0%.

With `CCCCCCCCCCCCCCCCCCOc1cc(OCC(=O)OC)cc(N(CC(=O)O)CC(=O)O)c1` [Example 58b, N-(carboxymethyl)-N-[3-(2-methoxy-2-oxoethoxy)-5-(octadecyloxy)phenyl]glycine] the inhibition at 5 µM ([1]; (5 μM), read-out: Inhib of HSF-PLA2, % inhibition) was 91%, the “% Inhib” value [2] was 19% and the inhibition in vivo at 30 mg/kg [3] was 20%.

With `CCCCCCCCCCCCCCCCCCOc1cc(OCCCOc2cccc(OC)c2)cc(N(CC(=O)O)CC(=O)O)c1` [Example 58j, N-(carboxymethyl)-N-[3-[3-(3-methoxyphenoxy)propoxy]-5-(octadecyloxy)phenyl]glycine] the IC50 [1] was 60 nM, the “% Inhib” value [2] was 28% and the inhibition in vivo at 30 mg/kg [3] was 57%.

In the case of `CCCCCCCCCCCCCCOc1cc(C(=O)OC)cc(N(CC(=O)O)CC(=O)O)c1` [Example 69a, N-(carboxymethyl)-N-[(3-methoxycarbonyl)-5-(tetradecyloxy)phenyl]glycine], the inhibition at 1 µM [1, 4] is reported as 52%, the “% Inhib” value [2] is reported as 71% and the inhibition in vivo at 30 mg/kg [3] is reported as 12%.

`CCCCCCCCCCOc1cc(OCCCCCCCCCC)cc(N(CC(=O)OCOC(C)=O)CC(=O)OCOC(C)=O)c1` [Example 132, N-[2-[(Acetyloxy)methoxy]-2-oxoethyl]-N-[3,5-bis(decyloxy)phenyl]glycine (acetyloxy)methyl ester] was tested, and the “% Inhib” value [2] was 36%.

In the case of `CCCCCCCCCCCCCCCCCCOc1cc(OCCOc2ccc3ccccc3c2)cc(N(CC(=O)O)CC(=O)O)c1` [Example 58h, N-(carboxymethyl)-N-[3-[2-(2-naphthalenyloxy)ethoxy]-5-(octadecyloxy)phenyl]glycine], the IC50 [1] is reported as 50 nM, the “% Inhib” value [2] is reported as 3% and the inhibition in vivo at 30 mg/kg [3] is reported as 31%.

For `CCCCCCCCCCCCCCCCCCNC(=O)Oc1ccc(N(CC(=O)O)CC(=O)O)cc1OC(=O)NCCCCCCCCCCCCCCCCCC` [Example 119d, N-(carboxymethyl)-N-[3,4-bis[[(octadecylamino)carbonyl]oxy]phenyl]glycine], the inhibition at 1 µM [1, 4] was 19% and the “% Inhib” value [2] was 14%.

With `O=C(O)CCCCCCCCCCOc1cc(OCCCCCCCCCCC(=O)O)cc(N(CC(=O)O)CC(=O)O)c1` [Example 6k, N-(carboxymethyl)-N-[3,5-bis[(11-hydroxy-11-oxoundecyl)oxy]phenyl]glycine] the inhibition at 10 µM [1, 4] was 35%, the “% Inhib” value [2] was 16% and the inhibition in vivo at 30 mg/kg [3] was 0%.

With `CCCCCCCCCCCCCCNC(=O)c1cc(C(=O)NCCCCCCCCCCCCCC)cc(N(CC(=O)O)CC(=O)O)c1` [Example 6q, N-(carboxymethyl)-N-[3,5-bis[(tetradecylamino)carbonyl]phenyl]glycine] the IC50 [1] was 300 nM and the inhibition in vivo at 30 mg/kg [3] was 0%.

In the case of `CCCCCCCCCCCCCCCc1cccc(OCCCOc2cccc(N(CC(=O)O)CC(=O)O)c2)c1` [Example 36i, N-(carboxymethyl)-N-[3-{3-(3-pentadecylphenoxy)propoxy]phenyl]glycine], the IC50 [1] is reported as 400 nM and the inhibition in vivo at 30 mg/kg [3] is reported as 7%.

In the case of `CCCCCCOc1cc(OCCCCCC)cc(N(CC(=O)O)CC(=O)O)c1` [Example 6b, N-(carboxymethyl)-N-[3,5-bis(hexyloxy)phenyl]glycine], the IC50 [1] is reported as 2100 nM and the inhibition in vivo at 30 mg/kg [3] is reported as 25%.

For `CCCCCCCCCCCCCCNC(=O)Oc1ccc(N(CC(=O)O)CC(=O)O)cc1OC(=O)NCCCCCCCCCCCCCC` [Example 119e, N-(carboxymethyl)-N-[3,4-bis[[(tetradecylamino)carbonyl]oxy]phenyl]glycine], the inhibition at 1 µM [1, 4] was 33% and the “% Inhib” value [2] was 0%.

For `CCCCCCCCCCCCCC(=O)Oc1ccc(N(CC(=O)O)CC(=O)O)cc1OC(=O)CCCCCCCCCCCCC` [Example 119b, N-(carboxymethyl)-N-[3,4-bis[(1-oxotetradecyl)oxy]phenyl]glycine], the inhibition at 1 µM [1, 4] was 80% and the “% Inhib” value [2] was 75%.

In the case of `CCCCc1ccc(N(CC(=O)O)CC(=O)O)cc1` [Example 39b, N-(carboxymethyl)-N-(4-butylphenyl)glycine], the IC50 [1] is reported as 264000 nM and the inhibition in vivo at 30 mg/kg [3] is reported as -9%.

`CCCCCCCCCCOc1cc(OCCCCCCCCCC)cc(N(CC(=O)O)CC(=O)OC)c1` [Example 31, N-(2-Methoxy-2-oxoethyl)-N-[3,5-bis(decyloxy)phenyl]glycine] was tested, and the “% Inhib” value [2] was 50% and the inhibition in vivo at 30 mg/kg [3] was 21%.

With `CCCCCCCCCCCCCCCCCC(=O)Nc1cccc(N(CC(=O)O)CC(=O)O)c1` [Example 46] the “% Inhib” value [2] was 35% and the inhibition in vivo at 30 mg/kg [3] was 44%.

`O=C(O)CN(CC(=O)O)c1cc(OCCCc2ccccc2)cc(OCCCc2ccccc2)c1` [Example 6g, N-(carboxymethyl)-N-[3,5-bis(3-phenylpropoxy)phenyl]glycine] was tested, and the IC50 [1] was 1300 nM and the inhibition in vivo at 30 mg/kg [3] was 26%.

For `CCCCOc1cc(OCCCC)cc(N(CC(=O)O)CC(=O)O)c1` [Example 6a, N-[3,5-bis(butoxy)phenyl]-N-(carboxymethyl)glycine], the IC50 [1] was 2000 nM and the inhibition in vivo at 30 mg/kg [3] was 33%.

`CCCCCCCCCCCCCCCCCCOc1cc(OCCOCCOCCOCCOC)cc(N(CC(=O)O)CC(=O)O)c1` [Example 156, N-(Carboxymethyl)-N-[3-[2-[2-(2-methoxyethoxy)ethoxy]ethoxy]ethoxy]-5-(octadecyloxy)phenyl glycine] showed an inhibition at 1 µM [1, 4] of 100% and an inhibition in vivo at 30 mg/kg [3] of 29%.

In the case of `CCCCCCCCCCOc1cc(C(=O)OC)cc(N(CC(=O)O)CC(=O)O)c1` [Example 69c, N-(carboxymethyl)-N-[(3-methoxycarbonyl)-5-(decyloxy)phenyl]glycine], the “% Inhib” value [2] is reported as 78% and the inhibition in vivo at 30 mg/kg [3] is reported as 1%.

For `CCCCCCCCCCCCCCCCCCOc1cccc(NCC(=O)O)c1` [Example 125, N-[3-(Octadecyloxy)phenyl]glycine], the inhibition at 10 µM [1, 4] was 55% and the “% Inhib” value [2] was 75%.

Work on `CCCCCCCCC(O)COc1cc(OCC(O)CCCCCCCC)cc(N(CC(=O)O)CC(=O)O)c1` (racemic) [Example 6h, rac-N-(carboxymethyl)-N-[3,5-bis[[2-hydroxydecyl)oxy]phenyl]glycine] yielded an IC50 [1] of 500 nM and an inhibition in vivo at 30 mg/kg [3] of 5%.

With `CCCCCCCCCCOc1cc(OCCCCCCCCCC)cc(N(CC(=O)OCC(=O)N(CCO)CCO)CC(=O)OCC(=O)N(CCO)CCO)c1` [Example 131] the “% Inhib” value [2] was 47% and the inhibition in vivo at 30 mg/kg [3] was 18%.

Compound `CCCCCCCCCCCCCCCCCCOc1cc(N(CC(=O)O)CC(=O)O)cc([S+](C)[O-])c1` (stereo not drawn) [Example 172, N-(Carboxymethyl)-N-[3-(methylsulfinyl)-5-(octadecyloxy)phenyl]glycine] has an inhibition at 1 µM [1, 4] of 39% and an inhibition in vivo at 30 mg/kg [3] of 43%.

For `CCCCCCCCCCOc1cc(OCCCCCCCCCC)cc(N(CC(=O)OCCN(CC)CC)CC(=O)OCCN(CC)CC)c1` [Example 130, N-[3,5-bis(Decyloxy)phenyl]-N-[2-[2-(diethylamino)ethoxy]-2-oxoethyl]glycine 2-(diethylamino)ethyl ester dihydrochloride], the inhibition in vivo at 30 mg/kg [3] was 2%.

In the case of `CCCCCCCCCCCCCCCCCCOc1cc(OCCCOc2ccc(C(=O)O)cc2)cc(N(CC(=O)O)CC(=O)O)c1` [Example 58p], the IC50 [1] is reported as 600 nM and the “% Inhib” value [2] is reported as 0%.

With `CCCCCCCCCCCCCCCCCCOc1cc(SC)cc(N(CC(=O)O)CC(=O)O)c1` [Example 166, N-(Carboxymethyl)-N-[3-(methylthio)-5-(octadecyloxy)phenyl]glycine] the inhibition at 1 µM [1, 4] was 88% and the inhibition in vivo at 30 mg/kg [3] was 31%.

`CCCCCCCCCCCCCCCCCCOc1cc(NC(C)=O)cc(N(CC(=O)O)CC(=O)O)c1` [Example 98] showed an inhibition at 1 µM [1, 4] of 98% and an inhibition in vivo at 30 mg/kg [3] of 51%.
